Data from patent EP4635500A1, “THERAPEUTIC AGENT FOR BACTERIAL INFECTION” (Sumitomo Pharma Co., Ltd., priority 2022, dated 2024).
In brackets after ≈: the same amount, converted by molar mass. Read-outs that look alike come from different tables or passages of the source.

Tests used:
[1] = test system: 53 CRE and CPE strains; experiment: MICrange, MIC50, MIC80, MIC90 for 53 bacterial isolates (Example 5, Table 5); type: cell-based; conditions: 53 bacterial isolates
[2] = test system: P. aeruginosa; experiment: MIC, broth microdilution, CDC/FDA Antibiotic Resistance Isolate Bank (Example 7, Tables 10, 15); type: cell-based; conditions: for MIC: Pseudomonas aeruginosa, read-out: MIC
[3] = 26 metallo-carbapenemase-producing P. aeruginosa strains, β-lactamase inhibitor µg/mL in parentheses
[4] = 96 strains of P. aeruginosa, β-lactamase inhibitor µg/mL in parentheses

CO/N=C(\C(=O)N[C@@H]1C(=O)N2C(C(=O)[O-])=C(C[n+]3ccn4ncccc43)CS[C@H]12)c1nsc(N)n1 [Cefozopran, cefozopran]
MIC50 ([1]; read-out: MIC50): 32 µg/mL (≈ 62.1 µM)
MIC80 ([1]; read-out: MIC80): > 64 µg/mL
MIC90 ([1]; read-out: MIC90): > 64 µg/mL
MIC against 26 metallo-carbapenemase-producing strains MIC50 [2, 3]: >64 µg(mL)
MIC against 26 metallo-carbapenemase-producing strains MIC90 [2, 3]: >64 µg(mL)
MIC against 26 metallo-carbapenemase-producing strains MICrange [2, 3]: >64 µg(mL)
MIC against 96 strains of P. aeruginosa MIC50 [2, 4]: 32 µg(mL)
MIC against 96 strains of P. aeruginosa MIC90 [2, 4]: >64 µg(mL)
MIC ([2]; P. aeruginosa KUB No. 579, AR Bank # 447): 0.5 µg/mL (≈ 0.97 µM)
MIC ([2]; P. aeruginosa KUB No. 5083, AR Bank # 250): > 64 µg/mL
MIC ([2]; P. aeruginosa KUB No. 5551, AR Bank # 54): > 64 µg/mL
MIC ([2]; P. aeruginosa KUB No. 5561, AR Bank # 64): > 64 µg/mL
MIC ([2]; P. aeruginosa KUB No. 5587, AR Bank # 90): > 64 µg/mL
MIC ([2]; P. aeruginosa KUB No. 5589, AR Bank # 92): > 64 µg/mL
MIC ([2]; P. aeruginosa KUB No. 5591, AR Bank # 94): 64 µg/mL (≈ 124 µM)
MIC ([2]; P. aeruginosa KUB No. 5592, AR Bank # 95): 1 µg/mL (≈ 1.94 µM)
MIC ([2]; P. aeruginosa KUB No. 5597, AR Bank # 100): > 64 µg/mL
MIC ([2]; P. aeruginosa KUB No. 5600, AR Bank # 103): > 64 µg/mL
MIC ([2]; P. aeruginosa KUB No. 5602, AR Bank # 105): 16 µg/mL (≈ 31 µM)
MIC ([2]; P. aeruginosa KUB No. 5605, AR Bank # 108): > 64 µg/mL
MIC ([2]; P. aeruginosa KUB No. 5607, AR Bank # 110): > 64 µg/mL
MIC ([2]; P. aeruginosa KUB No. 5608, AR Bank # 111): > 64 µg/mL
MIC ([2]; P. aeruginosa KUB No. 5662, AR Bank # 229): 16 µg/mL (≈ 31 µM)
MIC ([2]; P. aeruginosa KUB No. 5663, AR Bank # 230): > 64 µg/mL
MIC ([2]; P. aeruginosa KUB No. 5664, AR Bank # 231): > 64 µg/mL
MIC ([2]; P. aeruginosa KUB No. 5665, AR Bank # 232): 4 µg/mL (≈ 7.76 µM)
MIC ([2]; P. aeruginosa KUB No. 5666, AR Bank # 23): 2 µg/mL (≈ 3.88 µM)
MIC ([2]; P. aeruginosa KUB No. 5667, AR Bank # 234): 2 µg/mL (≈ 3.88 µM)
MIC ([2]; P. aeruginosa KUB No. 5668, AR Bank # 235): > 64 µg/mL
MIC ([2]; P. aeruginosa KUB No. 5669, AR Bank # 236): 4 µg/mL (≈ 7.76 µM)
MIC ([2]; P. aeruginosa KUB No. 5670, AR Bank # 237): 0.5 µg/mL (≈ 0.97 µM)
MIC ([2]; P. aeruginosa KUB No. 5671, AR Bank # 238): 1 µg/mL (≈ 1.94 µM)
MIC ([2]; P. aeruginosa KUB No. 5672, AR Bank # 239): > 64 µg/mL
MIC ([2]; P. aeruginosa KUB No. 5673, AR Bank # 240): > 64 µg/mL
MIC ([2]; P. aeruginosa KUB No. 5674, AR Bank # 241): > 64 µg/mL
MIC ([2]; P. aeruginosa KUB No. 5675, AR Bank # 242): > 64 µg/mL
MIC ([2]; P. aeruginosa KUB No. 5676, AR Bank # 243): > 64 µg/mL
MIC ([2]; P. aeruginosa KUB No. 5677, AR Bank # 244): 8 µg/mL (≈ 15.5 µM)
MIC ([2]; P. aeruginosa KUB No. 5678, AR Bank # 245): > 64 µg/mL
MIC ([2]; P. aeruginosa KUB No. 5679, AR Bank # 246): > 64 µg/mL
MIC ([2]; P. aeruginosa KUB No. 5680, AR Bank # 247): 4 µg/mL (≈ 7.76 µM)
MIC ([2]; P. aeruginosa KUB No. 5681, AR Bank # 248): > 64 µg/mL
MIC ([2]; P. aeruginosa KUB No. 5682, AR Bank # 249): > 64 µg/mL
MIC ([2]; P. aeruginosa KUB No. 5684, AR Bank # 251): 8 µg/mL (≈ 15.5 µM)
MIC ([2]; P. aeruginosa KUB No. 5685, AR Bank # 252): 16 µg/mL (≈ 31 µM)
MIC ([2]; P. aeruginosa KUB No. 5686, AR Bank # 253): 4 µg/mL (≈ 7.76 µM)
MIC ([2]; P. aeruginosa KUB No. 5687, AR Bank # 254): > 64 µg/mL
MIC ([2]; P. aeruginosa KUB No. 5688, AR Bank # 255): > 64 µg/mL
MIC ([2]; P. aeruginosa KUB No. 5689, AR Bank # 256): 0.5 µg/mL (≈ 0.97 µM)
MIC ([2]; P. aeruginosa KUB No. 5690, AR Bank # 257): 8 µg/mL (≈ 15.5 µM)
MIC ([2]; P. aeruginosa KUB No. 5691, AR Bank # 258): 1 µg/mL (≈ 1.94 µM)
MIC ([2]; P. aeruginosa KUB No. 5692, AR Bank # 259): 1 µg/mL (≈ 1.94 µM)
MIC ([2]; P. aeruginosa KUB No. 5693, AR Bank # 260): 4 µg/mL (≈ 7.76 µM)
MIC ([2]; P. aeruginosa KUB No. 5694, AR Bank # 261): 4 µg/mL (≈ 7.76 µM)
MIC ([2]; P. aeruginosa KUB No. 5695, AR Bank # 262): 2 µg/mL (≈ 3.88 µM)
MIC ([2]; P. aeruginosa KUB No. 5696, AR Bank # 263): 2 µg/mL (≈ 3.88 µM)
MIC ([2]; P. aeruginosa KUB No. 5697, AR Bank # 264): 0.5 µg/mL (≈ 0.97 µM)
MIC ([2]; P. aeruginosa KUB No. 5698, AR Bank # 265): 8 µg/mL (≈ 15.5 µM)
MIC ([2]; P. aeruginosa KUB No. 5699, AR Bank # 266): 8 µg/mL (≈ 15.5 µM)
MIC ([2]; P. aeruginosa KUB No. 5700, AR Bank # 267): 4 µg/mL (≈ 7.76 µM)
MIC ([2]; P. aeruginosa KUB No. 5701, AR Bank # 268): 32 µg/mL (≈ 62.1 µM)
MIC ([2]; P. aeruginosa KUB No. 5702, AR Bank # 269): 1 µg/mL (≈ 1.94 µM)
MIC ([2]; P. aeruginosa KUB No. 5703, AR Bank # 270): 4 µg/mL (≈ 7.76 µM)
MIC ([2]; P. aeruginosa KUB No. 5704, AR Bank # 271): 1 µg/mL (≈ 1.94 µM)
MIC ([2]; P. aeruginosa KUB No. 5705, AR Bank # 272): 0.5 µg/mL (≈ 0.97 µM)
MIC ([2]; P. aeruginosa KUB No. 5747, AR Bank # 351): > 64 µg/mL
MIC ([2]; P. aeruginosa KUB No. 5748, AR Bank # 352): > 64 µg/mL
MIC ([2]; P. aeruginosa KUB No. 5749, AR Bank # 353): > 64 µg/mL
MIC ([2]; P. aeruginosa KUB No. 5750, AR Bank # 354): 8 µg/mL (≈ 15.5 µM)
MIC ([2]; P. aeruginosa KUB No. 5751, AR Bank # 355): 16 µg/mL (≈ 31 µM)
MIC ([2]; P. aeruginosa KUB No. 5752, AR Bank # 356): > 64 µg/mL
MIC ([2]; P. aeruginosa KUB No. 5753, AR Bank # 357): > 64 µg/mL
MIC ([2]; P. aeruginosa KUB No. 5754, AR Bank # 358): 16 µg/mL (≈ 31 µM)
MIC ([2]; P. aeruginosa KUB No. 5755, AR Bank # 359): 16 µg/mL (≈ 31 µM)
MIC ([2]; P. aeruginosa KUB No. 5756, AR Bank # 360): 8 µg/mL (≈ 15.5 µM)
MIC ([2]; P. aeruginosa KUB No. 5785, AR Bank # 439): > 64 µg/mL
MIC ([2]; P. aeruginosa KUB No. 5786, AR Bank # 440): 32 µg/mL (≈ 62.1 µM)
MIC ([2]; P. aeruginosa KUB No. 5787, AR Bank # 441): > 64 µg/mL
MIC ([2]; P. aeruginosa KUB No. 5788, AR Bank # 443): > 64 µg/mL
MIC ([2]; P. aeruginosa KUB No. 5789, AR Bank # 444): > 64 µg/mL
MIC ([2]; P. aeruginosa KUB No. 5790, AR Bank # 445): 32 µg/mL (≈ 62.1 µM)
MIC ([2]; P. aeruginosa KUB No. 5793, AR Bank # 449): > 64 µg/mL
MIC ([2]; P. aeruginosa KUB No. 5798, AR Bank # 455): 32 µg/mL (≈ 62.1 µM)
MIC ([2]; P. aeruginosa KUB No. 5799, AR Bank # 456): 32 µg/mL (≈ 62.1 µM)
MIC ([2]; P. aeruginosa KUB No. 5800, AR Bank # 457): > 64 µg/mL
MIC ([2]; P. aeruginosa KUB No. 5801, AR Bank # 458): 64 µg/mL (≈ 124 µM)
MIC ([2]; P. aeruginosa KUB No. 5802, AR Bank # 459): 32 µg/mL (≈ 62.1 µM)
MIC ([2]; P. aeruginosa KUB No. 5804, AR Bank # 862): 32 µg/mL (≈ 62.1 µM)
MIC ([2]; P. aeruginosa KUB No. 5805, AR Bank # 863): > 64 µg/mL
MIC ([2]; P. aeruginosa KUB No. 5806, AR Bank # 864): 64 µg/mL (≈ 124 µM)
MIC ([2]; P. aeruginosa KUB No. 5813, AR Bank # 508): > 0.064 µg/mL
MIC ([2]; P. aeruginosa KUB No. 5814, AR Bank # 509): > 0.064 µg/mL
MIC ([2]; P. aeruginosa KUB No. 5815, AR Bank # 510): 0.004 µg/mL (≈ 0.00776 µM)
MIC ([2]; P. aeruginosa KUB No. 5816, AR Bank # 511): 0.0005 µg/mL (≈ 0.00097 µM)
MIC ([2]; P. aeruginosa KUB No. 5817, AR Bank # 512): 0.002 µg/mL (≈ 0.00388 µM)
MIC ([2]; P. aeruginosa KUB No. 5818, AR Bank # 513): 0.016 µg/mL (≈ 0.031 µM)
MIC ([2]; P. aeruginosa KUB No. 5819, AR Bank # 514): 0.0005 µg/mL (≈ 0.00097 µM)
MIC ([2]; P. aeruginosa KUB No. 5820, AR Bank # 515): 0.064 µg/mL (≈ 0.124 µM)
MIC ([2]; P. aeruginosa KUB No. 5821, AR Bank # 516): > 0.064 µg/mL
MIC ([2]; P. aeruginosa KUB No. 5823, AR Bank # 518): > 0.064 µg/mL
MIC ([2]; P. aeruginosa KUB No. 5831, AR Bank # 526): 0.008 µg/mL (≈ 0.0155 µM)
MIC ([2]; P. aeruginosa KUB No. 5832, AR Bank # 527): 0.008 µg/mL (≈ 0.0155 µM)
MIC ([2]; P. aeruginosa KUB No. 5833, AR Bank # 528): 0.032 µg/mL (≈ 0.0621 µM)
MIC ([2]; P. aeruginosa KUB No. 5834, AR Bank # 529): 0.008 µg/mL (≈ 0.0155 µM)
